The record followed here is ChEMBL document CHEMBL1201862, “PubChem BioAssay data set” (2004).

For one assay, the target named is T1, Cytochrome P450 1A2 (Homo sapiens, UniProt P05177).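 Also: PubChem cytochrome P450 panel assay, CYP1A2 panel member.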
T1 sequence (P05177 whole entry): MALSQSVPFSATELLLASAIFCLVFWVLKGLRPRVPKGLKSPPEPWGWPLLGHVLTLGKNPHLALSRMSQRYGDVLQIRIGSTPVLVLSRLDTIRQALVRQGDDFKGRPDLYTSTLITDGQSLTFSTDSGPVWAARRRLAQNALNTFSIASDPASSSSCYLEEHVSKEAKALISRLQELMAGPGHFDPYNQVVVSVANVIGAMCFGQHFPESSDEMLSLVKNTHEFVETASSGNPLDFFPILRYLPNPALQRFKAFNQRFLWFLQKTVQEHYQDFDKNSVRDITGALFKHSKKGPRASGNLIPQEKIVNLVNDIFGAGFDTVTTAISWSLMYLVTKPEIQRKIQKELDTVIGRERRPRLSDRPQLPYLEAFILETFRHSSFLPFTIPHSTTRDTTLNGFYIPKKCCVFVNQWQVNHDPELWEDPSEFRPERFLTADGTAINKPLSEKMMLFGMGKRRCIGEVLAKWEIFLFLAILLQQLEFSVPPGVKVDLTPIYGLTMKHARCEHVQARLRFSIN

Assay [1] concerns the target T2, Corticotropin-releasing factor receptor 2/Corticotropin-releasing factor-binding protein (Homo sapiens, UniProt P24387+Q13324).
T2 sequence (Q13324 whole entry): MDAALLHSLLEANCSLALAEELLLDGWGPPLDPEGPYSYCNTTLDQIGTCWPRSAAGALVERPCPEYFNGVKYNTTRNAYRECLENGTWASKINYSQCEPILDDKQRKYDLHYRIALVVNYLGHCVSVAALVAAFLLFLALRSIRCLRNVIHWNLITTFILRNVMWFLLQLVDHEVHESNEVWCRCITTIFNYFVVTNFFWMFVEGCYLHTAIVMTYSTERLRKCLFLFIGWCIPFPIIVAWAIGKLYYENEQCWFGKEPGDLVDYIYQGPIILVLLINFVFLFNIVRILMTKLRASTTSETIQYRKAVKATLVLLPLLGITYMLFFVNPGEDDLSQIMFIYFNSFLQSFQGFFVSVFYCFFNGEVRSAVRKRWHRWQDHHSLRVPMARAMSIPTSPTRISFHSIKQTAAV
T2 sequence (P24387 whole entry): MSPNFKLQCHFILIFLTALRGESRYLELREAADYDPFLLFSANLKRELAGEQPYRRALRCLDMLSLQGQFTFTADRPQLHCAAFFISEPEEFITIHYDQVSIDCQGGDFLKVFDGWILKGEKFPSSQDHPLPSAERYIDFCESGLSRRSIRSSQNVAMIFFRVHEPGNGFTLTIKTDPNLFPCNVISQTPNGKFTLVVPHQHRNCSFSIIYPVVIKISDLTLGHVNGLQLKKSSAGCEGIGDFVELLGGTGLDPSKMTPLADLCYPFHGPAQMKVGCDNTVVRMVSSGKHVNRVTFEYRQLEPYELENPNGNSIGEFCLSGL
Nature of the assay: Dose Response confirmation of uHTS hits for small molecule antagonists of the CRF-binding protein and CRF-R2 receptor complex. The class given is functional. As to conditions: read-out: IC50_Mean.

Another assay concerns the target T3, Protein skinhead-1 (Caenorhabditis elegans, UniProt P34707).
T3 sequence (P34707 whole entry): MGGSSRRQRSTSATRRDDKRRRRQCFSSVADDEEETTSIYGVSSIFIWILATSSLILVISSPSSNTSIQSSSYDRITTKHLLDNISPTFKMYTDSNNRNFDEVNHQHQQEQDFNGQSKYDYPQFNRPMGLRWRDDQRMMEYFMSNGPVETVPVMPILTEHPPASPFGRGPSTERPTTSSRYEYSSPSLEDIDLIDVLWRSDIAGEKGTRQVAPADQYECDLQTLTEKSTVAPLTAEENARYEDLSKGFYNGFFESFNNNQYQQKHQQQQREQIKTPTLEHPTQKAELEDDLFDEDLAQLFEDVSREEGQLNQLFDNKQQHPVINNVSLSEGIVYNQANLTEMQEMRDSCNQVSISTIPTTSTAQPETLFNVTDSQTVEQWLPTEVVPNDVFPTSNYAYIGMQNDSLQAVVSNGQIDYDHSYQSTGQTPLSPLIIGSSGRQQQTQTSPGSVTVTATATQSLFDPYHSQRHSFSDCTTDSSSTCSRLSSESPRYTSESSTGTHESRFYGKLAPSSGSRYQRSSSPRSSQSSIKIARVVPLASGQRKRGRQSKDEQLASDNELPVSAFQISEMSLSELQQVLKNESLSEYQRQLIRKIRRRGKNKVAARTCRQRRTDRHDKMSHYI
The class given is functional.

The target in assay [2] is T2, Corticotropin-releasing factor receptor 2/Corticotropin-releasing factor-binding protein. The experiment in a line: activators of CRF receptor 2 with binding protein – uHTS hits, confirmation (AID 602473). The following applies: read-out: EC50_Mean. The class given is functional.
Assay [3] addresses T4, Heat shock factor protein 1 (Mus musculus, UniProt P38532).
T4 sequence (P38532 whole entry): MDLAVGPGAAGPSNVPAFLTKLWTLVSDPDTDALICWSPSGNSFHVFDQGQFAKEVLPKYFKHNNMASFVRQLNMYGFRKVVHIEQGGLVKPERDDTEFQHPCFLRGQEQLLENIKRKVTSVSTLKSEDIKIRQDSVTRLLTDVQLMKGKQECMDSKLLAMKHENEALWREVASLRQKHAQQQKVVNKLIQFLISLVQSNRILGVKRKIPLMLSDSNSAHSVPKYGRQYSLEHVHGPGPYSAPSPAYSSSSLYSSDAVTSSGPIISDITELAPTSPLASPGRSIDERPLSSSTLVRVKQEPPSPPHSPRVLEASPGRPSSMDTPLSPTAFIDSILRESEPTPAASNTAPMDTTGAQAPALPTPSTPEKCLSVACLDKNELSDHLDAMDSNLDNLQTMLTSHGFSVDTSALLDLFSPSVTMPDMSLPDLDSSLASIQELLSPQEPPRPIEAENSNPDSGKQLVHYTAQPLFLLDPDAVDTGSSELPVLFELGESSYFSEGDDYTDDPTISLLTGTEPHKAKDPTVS
Nature of the assay: HSF1 potentiators in luciferase reporter cells, confirmation, cell-based, NIH3T3, luminescence, dose retest (AID 435004).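 Also: stress induced by proteasome inhibitor MG132 added 30 min after compound; luciferase reporter driven by HSF1 response element in NIH3T3 cells; actives raise luminescence as potentiators of the MG132 stress response.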 The class given is functional.

The target of the next assay is Cytochrome P450 2C9 (Homo sapiens, UniProt P11712).
Cytochrome P450 2C9, sequence (P11712 whole entry): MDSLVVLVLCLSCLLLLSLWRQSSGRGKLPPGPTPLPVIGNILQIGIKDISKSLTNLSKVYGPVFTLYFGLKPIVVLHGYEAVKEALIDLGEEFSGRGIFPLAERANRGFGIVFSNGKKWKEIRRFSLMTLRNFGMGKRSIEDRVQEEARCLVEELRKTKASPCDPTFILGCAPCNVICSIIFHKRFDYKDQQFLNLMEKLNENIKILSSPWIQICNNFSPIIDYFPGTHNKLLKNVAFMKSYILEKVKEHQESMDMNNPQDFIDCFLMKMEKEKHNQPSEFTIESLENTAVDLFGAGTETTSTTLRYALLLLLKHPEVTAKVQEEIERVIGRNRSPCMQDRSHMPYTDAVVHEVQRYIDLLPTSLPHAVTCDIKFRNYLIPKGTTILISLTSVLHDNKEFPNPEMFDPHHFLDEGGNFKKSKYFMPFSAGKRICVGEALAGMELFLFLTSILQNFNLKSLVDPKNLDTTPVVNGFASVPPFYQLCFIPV
The target in another assay is Cytochrome P450 3A4 (Homo sapiens, UniProt P08684).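 Also: CYP3A4 tested as one member of a cytochrome P450 panel screen.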
Cytochrome P450 3A4, sequence (P08684 whole entry): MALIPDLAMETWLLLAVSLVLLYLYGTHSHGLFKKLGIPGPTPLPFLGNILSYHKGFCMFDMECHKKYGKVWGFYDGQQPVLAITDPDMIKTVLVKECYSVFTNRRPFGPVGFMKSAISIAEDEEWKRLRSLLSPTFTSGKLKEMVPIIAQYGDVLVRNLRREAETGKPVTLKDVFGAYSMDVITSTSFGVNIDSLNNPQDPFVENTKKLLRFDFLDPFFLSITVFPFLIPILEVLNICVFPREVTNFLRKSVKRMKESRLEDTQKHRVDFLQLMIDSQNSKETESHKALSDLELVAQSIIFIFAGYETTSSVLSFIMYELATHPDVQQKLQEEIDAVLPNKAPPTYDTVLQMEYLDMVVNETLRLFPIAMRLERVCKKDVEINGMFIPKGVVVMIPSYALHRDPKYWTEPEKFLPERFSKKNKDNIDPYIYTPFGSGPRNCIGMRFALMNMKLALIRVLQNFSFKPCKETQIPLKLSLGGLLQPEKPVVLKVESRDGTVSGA
For a further assay, the system named is H4. The experiment in a line: Luminescence Cell-Based Dose Response HTS to Identify Activators of 5'UTR Stem-Loop Driven Prion Protein mRNA Translation in H4 Neuroglioblastoma Cells. [Related pubchem assays: 1829 (Project Summary), 1814 (Primary HTS)]. The class given is functional. As to conditions: Homo sapiens.
The nature of assay [4]: Luminescence Cell-Based Dose Response HTS to Identify Activators of Luciferase Translation or Activity in H4 […] Cells. [Related pubchem assays: 1829 (Project Summary), 1814 (Primary HTS)]. The class given is functional.
Assay [5] in a line: inhibitors of intracellular T. cruzi replication, confirmation, NIH3T3 host cells, beta-gal luminescence (AID 2044).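 Also: intracellular parasites grown in NIH/3T3 mouse fibroblasts as host cells; luminescent beta-galactosidase reporter signal from transgenic T. cruzi replicating inside host cells; inhibitors lower the luminescence signal.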 The class given is functional, cell-based.
Assay [6] can be described thus: cytotoxicity toward NIH3T3 fibroblasts, dose response, counter-screen, cell-based, ATP luminescence, mouse fibroblasts (AID 2010).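 Also: cells exposed to compound for about 90 hours before reading.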 The class given is functional.

Activity calls are given as the source filed them.

For `CCCNC(=N)NCCC[C@H](N)C(=O)O`, at Cytochrome P450 1A2, the AC50 was 31.6 µM (inconclusive).
On to `CCc1nc(NCCC(C)C)c(C#N)c2c1CCCC2`, for which the IC50 in [1] is > 47.1 µM (inactive); on Protein skinhead-1, > 100 µM (inactive). Besides, the EC50 in [2] is > 53 µM (inactive).
`Clc1ccc(-c2nnc(-c3ccccc3)o2)cn1`: the IC50 at Protein skinhead-1 is 39.8 µM (active).
`COc1ccc(/C=C/C(=O)N(C(C)C)C(C)C)cc1Br`: in assay [3], the EC50 was 200 µM (active).
As for `O=C1/C(=C\c2cccs2)SC(=S)N1C1CCS(=O)(=O)C1` (stereo not drawn), the IC50 on Protein skinhead-1 is > 100 µM (inactive).
Take `CCOC(=O)c1c(NC(=O)Cn2nc([N+](=O)[O-])c(Br)c2C)sc2c1CCC(C)C2` (stereo not drawn): the AC50 at Cytochrome P450 2C9 is 3.55 µM (inconclusive); at Cytochrome P450 1A2, 2.82 µM (inconclusive).
For the compound `COc1ccc(C(=O)N2CCC3(CC2)CN(C(=O)Nc2ccccc2)C3)cc1`, the AC50 on Cytochrome P450 1A2 is 25.1 µM (inconclusive).
Take `COc1ccc(-c2nc3cnc(N4CCNCC4)nc3n(C)c2=O)cc1`: the values for the concentration at half-maximal activity (AC50) at Cytochrome P450 3A4 and at Cytochrome P450 1A2 were 31.6 µM (inconclusive) and 12.6 µM (inconclusive), respectively.
Take `O=C(C1CCN(S(=O)(=O)c2cccc3nsnc23)CC1)N1CCCc2ccccc21`: the figures for the AC50 at Cytochrome P450 2C9 and at Cytochrome P450 1A2 were 39.8 µM (inconclusive) and 10 µM (inconclusive), respectively.
Regarding `COc1cccc(-c2ccc3ncnc(N4CCNCC4)c3c2)c1`, the AC50 on Cytochrome P450 3A4 is 10 µM (inconclusive).
Turning to `CN(C)c1ccc(C(CNC(=O)c2ccccc2)c2c[nH]c3ccccc23)cc1` (stereo not drawn), the EC50 in [3] is > 260 µM (inactive).
Regarding `CC(NC(=O)/C=C/c1ccco1)c1nc2ccccc2n1Cc1cccc(Cl)c1` (stereo not drawn), the EC50 in assay [3] was > 260 µM (inactive).
For the compound `c1ccc(N2CCN(c3cnc4ccccc4n3)CC2)cc1`, on Protein skinhead-1, the IC50 was 76.2 µM (inactive).
Turning to `CC(=O)NCCNc1nc(-c2ccccc2Cl)nc2ccccc12`, the AC50 at Cytochrome P450 3A4 was 5.01 µM (inconclusive).
As to `CCN(CC)c1ccc(N2C(=O)/C(=C/c3cccnc3)SC2=S)cc1`, the AC50 at Cytochrome P450 1A2 is 6.31 µM (inconclusive).
Turning to `CC(=O)N1CSCC1C(=O)NNS(=O)(=O)c1cccc(C(F)(F)F)c1` (stereo not drawn), the EC50 in [3] is > 260 µM (inactive).
With `Cc1ccccc1OCc1nnc2c3cnn(C)c3ncn12`, the EC50 is 38.8 µM (active) with H4 and 16.8 µM (active) in [4].
In the case of `CC(=O)N1CCC[C@@]2(CCN(Cc3nccs3)C2)C1`, the AC50 on Cytochrome P450 3A4 was 31.6 µM (inconclusive).
For the compound `COC(=O)c1[nH]c2ccccc2c1NC(=O)C(C)N1CCOCC1` (stereo not drawn), the IC50 on Protein skinhead-1 was > 100 µM (inactive).
Turning to `COc1ccc(Nc2oc(-c3ccc(F)cc3)nc2C#N)cc1`, the EC50 is > 120 µM (not active) with H4 and 15.1 µM (active) in assay [4].
For `CSc1ccc(S(=O)(=O)N2CCC(C(=O)Nc3ccccc3C(F)(F)F)CC2)cc1`, the IC50 at Protein skinhead-1 is > 100 µM (inactive).
Still for that read-out and setting: for `CCn1cc(C(=O)OCC(=O)NCc2ccc3c(c2)OCO3)c(=O)c2ccc(C)nc21` the value was > 100 µM (inactive); for `Cc1cc(C)n(-c2nc3ccccc3n3cnnc23)n1`, > 100 µM (inactive).
Regarding `O=C(O)C[C@@H](C(=O)O)c1ccccc1[N+](=O)[O-]`, the AC50 at Cytochrome P450 1A2 was 0.794 µM (inconclusive).
In the case of `Fc1ccc(-c2cnn3c(-c4ccncc4)ccnc23)cc1`, on Protein skinhead-1, the IC50 was > 100 µM (inactive).
Regarding `COc1cc(-c2cn(S(=O)(=O)c3cccc4nsnc34)nc2N)cc(OC)c1OC`, the EC50 in assay [3] was > 260 µM (inactive).
Consider `Cc1csc(NC(=O)CNS(=O)(=O)c2cccs2)n1`, for which the AC50 at Cytochrome P450 3A4 is 17.8 µM (inconclusive).
On to `COc1cccc(CNCc2ccc(SC)cc2)c1OC`, for which the AC50 on Cytochrome P450 3A4 is 11.2 µM (inconclusive).
For the compound `COc1ccc(C(=O)N2CCC[C@@]3(CCN(c4cccc(-c5ccccc5)c4)C3)C2)cc1`, the AC50 on Cytochrome P450 1A2 is 12.6 µM (inconclusive).
As for `O=C(Nc1ccccc1C(=O)N1CCCC1)c1ncoc1-c1cccc(Cl)c1`, in assay [3], the EC50 was > 260 µM (inactive).
As for `O=C(CN1CCN(S(=O)(=O)N2CCCCC2)CC1)Nc1cc(Cl)cc(Cl)c1`, at Protein skinhead-1, the IC50 is > 100 µM (inactive).
With `N#CC(c1ccccn1)(c1ncc(C(F)(F)F)cc1Cl)N1CCOCC1` (stereo not drawn), the AC50 at Cytochrome P450 3A4 is 35.5 µM (inconclusive).
In the case of `COc1ccc(NC(=O)CSc2nnc(C3CC3)n2N)cc1`, the AC50 on Cytochrome P450 2C9 was 28.2 µM (inconclusive); at Cytochrome P450 1A2 it was 39.8 µM (inconclusive).
Take `N#C/C(=C(\O)C(F)(F)F)c1nnc2n1CCCCC2`: the EC50 in assay [3] is > 260 µM (inactive).
For `COc1cc(/C=N/NC(=O)c2ccncc2)ccc1OC(=O)c1ccc([N+](=O)[O-])cc1`, the AC50 on Cytochrome P450 2C9 was 3.55 µM (inconclusive); at Cytochrome P450 3A4, 0.891 µM (inconclusive).
Regarding `CO/C(O)=C1/C(C)=NC2=C(C(=O)CC(C)(C)C2)C1c1cn(Cc2ccc(Br)cc2)nc1-c1ccccc1` (stereo not drawn), the EC50 in [3] is > 260 µM (inactive).
On to `COc1ccc(/C(C)=N/NC(=S)NCc2ccco2)cc1`, for which, in assay [3], the EC50 was > 260 µM (inactive).
In the case of `CCOC(=O)C1=C(Nc2ccccc2)CC(C)(O)C(C(=O)OCC)C1c1ccc(Cl)cc1` (stereo not drawn), at Protein skinhead-1, the IC50 is > 100 µM (inactive).
Take `CSc1ccc2c(c1)N(CCCN(C)C)c1ccccc1S2`: the half-maximal activity concentration (AC50) on Cytochrome P450 1A2 is 1.26 µM (inconclusive).
Turning to `C[C@@H](N)Cn1ccc2cc(F)c(Cl)cc21`, the AC50 on Cytochrome P450 3A4 was 39.8 µM (inconclusive).
For the compound `N#C/C(=C\c1ccc(Sc2ccccc2)o1)c1nc2ccccc2[nH]1`, the EC50 in [5] is 1.42 µM (active); in the assay with H4, 23 µM (active); in [4] it was 0.561 µM (active); in [6], > 60 µM (inconclusive).
